Data as given in patent US9573899B2, “USP7 inhibitor compounds and methods of use” (Genentech, Inc., priority 2015, dated 2017).
Entries after “also recorded” stand apart in the source; their conditions may differ.

Experiments:
[1] = test system: p53 and p21 in HCT116 colon cancer cell lines; assay: Western blot of p53 and p21 in isogenic HCT116 cell lines (FIG. 2A); format: cell-based, Human; details: isogenic HCT116: wild-type, USP7 null
Method: In 24-well plates, 0.10-0.15×10^6 (adherent) or 0.5×10^6 (suspension) cells were treated with 15 μM or 2.5 μM compounds, respectively, for 24 h in low serum prior to lysis for Western Blot analysis.

[2] = test system: colon cancer cell lines RKO and RKO-E6, and cervical cancer cell lines Vibo and SiHA; assay: Incucyte cell proliferation in RKO, RKO-E6, Vibo and SiHA cells (FIG. 15); format: cell-based
Method: 2,500-5,000 cells were seeded in 1-well of a 96-well plate (Corning; 3904). The following day, the media was changed from normal (10%) to low serum (0.5%) containing vehicle (DMSO) or compounds. 16-24 h later FBS was added to each well to bring serum levels back to normal (10%). Cells were then allowed to grow for 2 days. All treatments were done in triplicate. The day after cells were seeded, the media was changed to low serum media containing 2 μM CellEvent Caspase 3/7 reagent (Life Technologies; C10423) and compounds. The plates were placed in an IncuCyte (Essen Bioscience, Inc.) live cell imager and scanning was started 15-20 mins after. IncuCyte™ ZOOM facilitates live-cell monitoring via customized imaging protocols. Images were taken every 2 h for at least 3 days, using a 10× objective. Phase contrast was used to measure cell confluency/density while green fluorescence was used to measure caspase activity. The images were analyzed using IncuCyte software (Basic Analysis parameters) and a ratio of caspase activity to cell density was determined.

USP47 = target: T1, USP47 (Homo sapiens, UniProt Q96K76); assay: Ub-Rho110 DUB assay, Table 2, USP47; format: biochemical
T1 sequence (Q96K76 1-1375): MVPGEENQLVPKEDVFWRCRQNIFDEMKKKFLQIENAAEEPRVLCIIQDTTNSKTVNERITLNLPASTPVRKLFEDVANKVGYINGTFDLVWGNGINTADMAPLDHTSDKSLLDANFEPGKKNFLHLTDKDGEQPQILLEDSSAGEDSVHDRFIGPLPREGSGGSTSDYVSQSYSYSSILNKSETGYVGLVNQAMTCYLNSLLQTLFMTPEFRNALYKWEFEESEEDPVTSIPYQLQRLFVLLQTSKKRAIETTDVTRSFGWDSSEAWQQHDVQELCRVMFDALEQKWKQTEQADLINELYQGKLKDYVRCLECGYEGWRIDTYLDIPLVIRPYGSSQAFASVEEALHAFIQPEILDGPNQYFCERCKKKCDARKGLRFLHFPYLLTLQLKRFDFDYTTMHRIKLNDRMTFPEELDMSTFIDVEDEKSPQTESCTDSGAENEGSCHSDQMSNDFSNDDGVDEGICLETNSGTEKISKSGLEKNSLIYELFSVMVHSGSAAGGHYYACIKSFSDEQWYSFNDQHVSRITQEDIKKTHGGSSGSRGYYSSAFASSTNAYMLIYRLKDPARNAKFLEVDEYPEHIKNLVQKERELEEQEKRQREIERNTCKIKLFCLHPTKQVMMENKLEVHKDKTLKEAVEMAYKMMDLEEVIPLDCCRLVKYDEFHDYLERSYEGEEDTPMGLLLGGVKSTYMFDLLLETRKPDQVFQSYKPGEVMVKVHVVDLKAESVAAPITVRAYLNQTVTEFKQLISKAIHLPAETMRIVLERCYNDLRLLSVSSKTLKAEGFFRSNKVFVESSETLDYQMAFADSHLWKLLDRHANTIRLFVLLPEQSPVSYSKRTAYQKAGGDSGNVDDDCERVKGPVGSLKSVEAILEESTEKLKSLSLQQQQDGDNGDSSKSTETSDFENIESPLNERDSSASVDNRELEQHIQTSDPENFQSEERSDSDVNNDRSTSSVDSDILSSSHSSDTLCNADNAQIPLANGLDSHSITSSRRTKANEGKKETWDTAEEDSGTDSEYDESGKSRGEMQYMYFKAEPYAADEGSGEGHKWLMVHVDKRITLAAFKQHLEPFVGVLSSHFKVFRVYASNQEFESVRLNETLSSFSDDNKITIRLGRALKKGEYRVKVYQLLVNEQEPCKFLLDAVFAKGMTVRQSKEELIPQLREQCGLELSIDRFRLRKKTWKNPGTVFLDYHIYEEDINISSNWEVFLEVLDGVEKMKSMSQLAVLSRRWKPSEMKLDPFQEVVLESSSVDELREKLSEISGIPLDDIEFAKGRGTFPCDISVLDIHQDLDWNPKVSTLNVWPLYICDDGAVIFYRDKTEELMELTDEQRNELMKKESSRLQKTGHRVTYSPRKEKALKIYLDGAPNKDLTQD

USP7 catalytic domain = USP7 catalytic domain (Homo sapiens, UniProt Q93009); assay: Ub-Rho110 DUB assay, Table 2, USP7 catalytic domain; format: biochemical; details: read-out: Ub-Rho110 IC50, USP7 cat
USP7 catalytic domain, sequence (Q93009 214-521 limits assumed): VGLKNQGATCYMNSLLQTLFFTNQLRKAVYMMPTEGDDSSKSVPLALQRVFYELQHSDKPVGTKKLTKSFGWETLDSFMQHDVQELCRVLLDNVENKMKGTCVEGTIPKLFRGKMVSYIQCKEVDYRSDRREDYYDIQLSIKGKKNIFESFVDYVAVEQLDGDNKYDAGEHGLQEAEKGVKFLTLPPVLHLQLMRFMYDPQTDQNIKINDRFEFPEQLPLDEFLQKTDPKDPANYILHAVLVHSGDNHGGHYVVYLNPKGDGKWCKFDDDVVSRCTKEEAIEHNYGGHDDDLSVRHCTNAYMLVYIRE
Method: (§1) Biochemical USP7 assays using Ubiquitin-Rho110 as a substrate: The final assay conditions were as follows: The Reaction Buffer consisted of: 50 mM Tris (pH 7.5), 0.01% (v/v) Triton X-100, 2.5 mM Dithiothreitol, 0.1% (w/v) bovine gamma globulin (Sigma cat #G5009-25G); USP7, full-length, native C-Terminus, 0.2 nM; the substrate, Ubiquitin-Rho110 (Boston Biochem cat #U-555), 1 uM. Reactions were carried out for 1 hour at room temperature, in black 20 μL volume polystyrene ProxiPlate 384 F Plus® (PerkinElmer cat #6008260).
(§2) Test compounds, including a control USP7 inhibitor (Ub-aldehyde, Boston Biochem cat #U-201) were serially diluted in DMSO, in 384 well clear V-bottom polypropylene plates (Greiner cat #781280). Compounds in DMSO were diluted 10-fold into Reaction Buffer, to achieve 3-fold the final desired concentration. The substrate, Ubiquitin-Rho110 (Boston Biochem cat #U-555), was prepared at 3 μM (3-fold the final concentration) and 5 ul was dispensed into the reaction plate. 5 ul of the compounds (diluted in Reaction Buffer at 3-fold the final concentration) were transferred to the reaction plate. 5 ul of 0.6 nM USP7 (diluted in Reaction Buffer at 3-fold the final concentration) was transferred to the reaction plate to initiate the reaction. After 1 hour incubation at room temperature the reaction was quenched by the addition of 5 ul of 400 mM acetic acid. The enzymatic product was measured by quantifying the fluorescence signal of cleaved Rhodamine-110 using excitation at 485 nm and emission at 535 nm. When pre-incubation of USP7 with compounds was required, the order of addition of reagents was modified to pre-mix the compounds with USP7 (with a 1 hour incubation period), prior to the addition of the substrate and the initiation of the reaction period. Percentage inhibition values were calculated relative to a no enzyme control and a uninhibited enzyme control. Curve fitting and IC50 calculations were carried out using Genedata Screener software.

endogenous USP7 = target: T2, endogenous USP7 (Homo sapiens, UniProt Q93009); assay: Activity-based profiling of deubiquitinases with HA-tagged ubiquitin probes, western blot (FIG. 5, 6); format: biochemical; details: 15 μM, 293T cell lysate
T2 construct: endogenous in cells; host or cells: 293T cell lysate
T2 sequence (Q93009 whole entry): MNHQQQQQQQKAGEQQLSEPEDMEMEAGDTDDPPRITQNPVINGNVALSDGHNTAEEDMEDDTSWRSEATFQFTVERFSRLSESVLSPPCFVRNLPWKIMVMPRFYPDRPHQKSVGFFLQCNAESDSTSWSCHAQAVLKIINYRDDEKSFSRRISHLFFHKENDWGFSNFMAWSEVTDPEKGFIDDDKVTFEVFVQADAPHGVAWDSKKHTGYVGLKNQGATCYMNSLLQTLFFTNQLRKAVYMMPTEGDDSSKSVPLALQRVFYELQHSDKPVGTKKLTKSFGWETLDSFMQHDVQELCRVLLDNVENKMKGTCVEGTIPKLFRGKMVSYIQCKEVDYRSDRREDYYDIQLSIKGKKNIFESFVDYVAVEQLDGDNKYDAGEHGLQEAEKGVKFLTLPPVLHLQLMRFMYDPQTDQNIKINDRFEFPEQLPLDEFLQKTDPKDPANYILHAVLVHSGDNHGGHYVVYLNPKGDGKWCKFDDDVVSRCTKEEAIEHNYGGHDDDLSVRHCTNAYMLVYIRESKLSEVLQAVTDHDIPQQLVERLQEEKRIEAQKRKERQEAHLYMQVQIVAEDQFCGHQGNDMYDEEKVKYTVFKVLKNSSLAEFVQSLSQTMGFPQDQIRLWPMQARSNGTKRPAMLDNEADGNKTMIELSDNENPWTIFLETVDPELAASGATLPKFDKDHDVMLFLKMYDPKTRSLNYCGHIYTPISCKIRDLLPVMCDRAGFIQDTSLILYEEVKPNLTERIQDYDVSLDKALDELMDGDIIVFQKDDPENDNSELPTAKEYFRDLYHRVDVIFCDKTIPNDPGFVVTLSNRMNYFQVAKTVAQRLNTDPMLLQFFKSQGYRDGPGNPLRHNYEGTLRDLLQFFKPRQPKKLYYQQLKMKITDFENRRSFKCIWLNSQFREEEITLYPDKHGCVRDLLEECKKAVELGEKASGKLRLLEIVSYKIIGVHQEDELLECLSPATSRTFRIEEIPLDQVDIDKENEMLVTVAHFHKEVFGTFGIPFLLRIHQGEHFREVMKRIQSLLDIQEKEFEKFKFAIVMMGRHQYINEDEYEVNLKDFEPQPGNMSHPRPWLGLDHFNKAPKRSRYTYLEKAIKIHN
Method: 293T cells at 80% confluency are harvested by rinsing the plate one time with 10 ml PBS followed by scraping. Cells are cleared by spinning them for 3 min at 350 g at 4° C. and the pellet is flash-frozen in liquid nitrogen and stored at −80° C. until lysis. Frozen cells are lysed by quickly re-thawing them in Buffer A (50 mM Tris-HCl pH 7.5, 250 mM Sucrose, 5 mM TCEP, 2 mM ATP, 50 μM phenylmethylsulfonyl fluoride (PMSF), 120 mM NaCl, 5 mM MgCl2) and the lysate is cleared by centrifugation by spinning at 18,000 g at 4° C. […] Subsequently, the 4 samples are all incubated with 6.6 μg/ml of either one of the following activity-based DUB probes (the same probe for each of the 4 samples): HA-tagged ubiquitin vinyl sulfone (Boston Biochem, Cambridge, Mass.), HA-tagged ubiquitin propargylamine (UbiQ Bio BV, Amsterdam, The Netherlands) or HA-tagged ubiquitin vinylmethyl ester (UbiQ Bio BV, Amsterdam, The Netherlands), 1200 rpm, at 25° C., for 1 hr. The reaction is terminated by adding a 20% SDS solution to a final concentration of 0.4% for at least 30 min at room temperature, rotating. Subsequently, the reacted lysate is diluted 10× with Buffer B (50 mM Tris-HCl pH 7.5, 150 mM NaCl, 5 mM EDTA, protease inhibitor cocktail EDTA-free (Roche, Mannheim, Germany), 50 μM PMSF, 0.5% NP-40). 60-100 μl slurry depending on input protein amount of pre-equilibrated anti-HA affinity matrix (Roche, Mannheim, Germany) are added and HA-tagged proteins are immunopurified with this matrix by rotating the samples over night at 4° C. The next day the beads are washed with the following buffers in this order: three times ice-cold Buffer B, one time ice-cold Buffer B NP-40 free, and three times ice-cold 15 mM TEAB pH 8.5. Spins between washes are performed at 2000 g and 4° C. […]

USP7 = target: T3, USP7 (Homo sapiens, UniProt Q93009); assay: Ub-Rho110 DUB assay, Table 2, USP7; format: biochemical
T3 construct: USP7, full-length, native C-Terminus, 0.2 nM
T3 sequence (Q93009 whole entry): as above
Method: as §1, §2

[3] = test system: KMS-21BM and KMS-28PE multiple myeloma cells; assay: Cell Titer Glo viability of multiple myeloma cells (FIG. 13A); format: cell-based; details: compared to 89
Method: Seventy two hours after compounds were added, CellTitre Glo (CTG) reagent was added following the protocol provided by the manufacturer (Promega). In the experiment to test compound dependency on USP7, 3× more USP7 null cells were plated per well (7,500 vs. 2,500 for wild-type (WT) cells), given the slower proliferation of USP7 null cells. For the multiple myeloma experiment, cells seeded in low serum and treated with compounds immediately. Twenty four hours later, serum was added back to normal levels. CTG assay was done 24 h later i.e. 48 h after compounds were added instead of 72 hrs later for the adherent cells.

With `CCc1c(-c2ccc3[nH]ncc3c2)cnc(N)c1-c1ccc(O)cc1` [Compound 88, 4-[2-amino-4-ethyl-5-(1H-indazol-5-yl)-3-pyridyl]phenol] the “stabilization of p53 and p21 (western blot)” value [1] was “stabilize p53 and p21”, the “cell viability (Incucyte cell proliferation)” value [2] was “decreases cell viability” and the IC50 (USP47) was > 200000 nM. The IC50 (USP7 catalytic domain) was 430 nM, the “selective antagonism of endogenous USP7 over other DUBs” value (endogenous USP7; evaluated by western blotting) was “selective DUB inhibition; also recorded: selectively antagonizes endogenous USP7 over other DUBs” and the “HA-probe-conjugated band corresponding to USP7” value (endogenous USP7; western blot) was “decreased”. For the same compound, the IC50 (USP7) was 980 nM, the “selectivity of antagonism of USP7 catalytic activity over the DUBs evaluated” value (USP7; conclusion from Table 2 (USP7, USP7 cat, USP47, USP5)) was “selective antagonists of USP7 catalytic activity” and the “cell viability (Cell Titer Glo signal)” value [3] was “decrease in cell viability”.
